Laboratory results reported in patent US20060041013A1, “Alanosine formulations and methods of use” (priority 2004, published 2006).
Where two headings read alike, the source gives them in different places.

Experiments:
HS-766T [1] = assay: Cell viability MTT assay (Example 3); type: cell-based
A-427 [2] = assay: Cell viability MTT assay (Example 3); type: cell-based; details: Homo sapiens, 72 h; A-427, NSCLC, MTAP Positive; 3 days
NCI-H2452 [3] = assay: Drug combinations with L-alanosine, MTT assay; type: cell-based; details: combination with L-alanosine, mesothelioma, three days
Experimental: (§1) In each experiment, tumor cells from lung, pancreatic, or mesothelial tumor cell lines were plated in 96-well plates at 5,000 cells/well in 100 μL media. The media for all assays except the Alimta® studies was RPMI-1640 and 10% horse serum. For the Alimta® studies, the media used was RPMI 1640 with dialyzed fetal bovine serum. All media contained 100 Units/mL penicillin and 100 μg/mL streptomycin. The cells were allowed to adhere for 18 hours at 37° C./5.0% CO2. […] After drug addition, cells were incubated three days at 37° C., 5.0% CO2. Cell viability was assayed using a standard MTT assay, as follows: 10 μl of 12 mM 3-[4,5-dimethylthiazol-2-yl]-2,5-diphenyltetrazolium bromide (MTT) (Sigma) were added to each well. The cells were incubated at 37° C., 5% CO2 for 4 to 6 hours. 100 μl of 20% SDS, 0.015 M HCl were added to each well and the cells were incubated overnight. Cytotoxicity was measured by reading absorbance at 595 nm.
(§2) Data analysis was performed using GraphPad Prism version 3.0 (GraphPad Software, San Diego, Calif. USA).

A549 [4] = assay: Drug combinations with L-alanosine, MTT assay; type: cell-based; details: combination with L-alanosine, NSCLC, three days
Experimental: as §1, §2

NCI-H2452 [5] = test system: NCI-H2452
[6] = Cell viability MTT assay (Example 3); type: cell-based; details: 72 h; A-594, NSCLC, MTAP Negative; 3 days
NCI-H226 [7] = assay: Cell viability MTT assay (Example 3); type: cell-based; details: Homo sapiens, 72 h; NCI-H226, Mesothelioma, MTAP Positive; 3 days
HS-766T [8] = assay: Intracellular ATP levels (Cell-Titer Glow); type: cell-based
Experimental: (§3) MTAP status was determined using immunoblot analyses and correlated with the ability of an MTA analog to rescue ATP levels in cell lines treated with SDX-102. ATP levels were measured using Cell-Titer Glow™ (Promega) after a 3 day treatment with titrated concentrations of either SDX-102 or pemetrexed.
(§4) ATP values measured using Cell-Titer Glow™ (Promega) after 3 days exposure to the MTA analog. Solid lines in FIG. 8 represent the effect of titrations of SDX-102 from 0.05 μM-20 μM (FIG. 8A) or pemetrexed from 0.01 μM-5 μM (FIG. 8B) on cellular ATP levels. The dotted lines represent the effect of a single concentration of SDX-102 (10 μM) or pemetrexed (2.5 μM) with a titration of an MTA analog from 0.1 μM-50 μM.

A-427 [9] = assay: Intracellular ATP levels (Cell-Titer Glow); type: cell-based
Experimental: as §3, §4

NCI-H226 [10] = assay: Intracellular ATP levels (Cell-Titer Glow); type: cell-based
Experimental: as §3, §4

BxPC3 [11] = assay: Cell viability MTT assay (Example 3); type: cell-based; details: Homo sapiens, BXPC-3, 72 h; BxPC3, Pancreatic, MTAP Negative; 3 days
NCI-H2452 [12] = assay: Cell viability MTT assay (Example 3); type: cell-based; details: Homo sapiens, 72 h; NCI-H2452, Mesothelioma, MTAP Negative; 3 days
NCI-H2452 [13] = assay: Intracellular ATP levels (Cell-Titer Glow); type: cell-based; details: Homo sapiens
Experimental: as §3

BxPC3 [14] = assay: Intracellular ATP levels (Cell-Titer Glow); type: cell-based; details: Homo sapiens, BXPC-3, 72 h; BxPC3, Pancreatic, MTAP Negative; 3 day treatment
Experimental: as §3

A-594 = assay: Intracellular ATP levels (Cell-Titer Glow); type: cell-based; details: 72 h; A-594, NSCLC, MTAP Negative; 3 day treatment
Experimental: as §3

A549 NSCLC xenografts = assay: MTAP-negative A549 NSCLC xenografts in SCID mice; type: in vivo
NCI-H292 [15] = assay: Drug combinations with L-alanosine, MTT assay; type: cell-based; details: combination with L-alanosine, ratio drug:alanosine 1:1000; NSCLC; three days
Experimental: as §1, §2

NCI-H2322M = assay: Drug combinations with L-alanosine, MTT assay; type: cell-based; details: combination with L-alanosine, ratio drug:alanosine 1:1000; NSCLC; three days
Experimental: as §1, §2

PanC1 = assay: Drug combinations with L-alanosine, MTT assay; type: cell-based; details: combination with L-alanosine, pancreatic, three days
Experimental: as §1, §2

NCI-H2452 [16] = assay: Docetaxel, 5-FU, SDX-102 alone or combined, MTT/MTS cytotoxicity (Example 4); type: cell-based; details: Homo sapiens; NCI-H2452, Mesothelioma, single agent, MTT 72 hours
PANC-1 = assay: as above; type: cell-based; details: Homo sapiens; PANC-1, Pancreatic, single agent, MTT 72 hours
NCI-H322M = assay: as above; type: cell-based; details: Homo sapiens, NSCLC, single agent, MTT 72 hours
BX-PC3 [17] = assay: as above; type: cell-based; details: Homo sapiens, BXPC-3; BX-PC3, Pancreatic, single agent, MTT 72 hours
A549 [18] = assay: as above; type: cell-based; details: Homo sapiens; A549, NSCLC, single agent, MTT 72 hours
H-Meso-1 = assay: Mesothelioma xenograft model (H-Meso-1) in SCID mice; type: in vivo; details: thirty-one days following treatment; docetaxel 10 mg/kg intraperitoneally daily Mon-Fri, SDX-102 50 mg/kg osmotic pump; start 100 mm^3; control 1272
NCI-H292 [19] = assay: Docetaxel, 5-FU, SDX-102 alone or combined, MTT/MTS cytotoxicity (Example 4); type: cell-based; details: Homo sapiens; NCI-H292, NSCLC, single agent, MTT 72 hours
BX-PC3 [20] = assay: Drug combinations with L-alanosine, MTT assay; type: cell-based; details: combination with L-alanosine, three days
Experimental: as §1, §2

[21] = ratio drug:alanosine 1:4, pancreas
[22] = ratio drug:alanosine 5:1, pancreatic
[23] = ratio drug:alanosine 1:100, pancreas

Compound: Nc1nc2[nH]cc(CCc3ccc(C(=O)N[C@@H](CCC(=O)O)C(=O)O)cc3)c2c(=O)[nH]1 [pemetrexed]
- IC50 (HS-766T [1]; Hs766T, 72 h, Pancreatic, MTAP Positive, 3 days): > 20 µM
- rescue by MTAP substrate from loss of viability (HS-766T [1]; MTT assay): fully rescue
- IC50 (A-427 [2]): 3 µM
- EC75 CI value (NCI-H2452 [3]; ratio drug:alanosine 1:1): 0.3
- EC75 Effect (NCI-H2452 [3]; ratio drug:alanosine 1:1): strong
- EC90 Effect (NCI-H2452 [3]; ratio drug:alanosine 1:1): strong
- EC75 CI value (A549 [4]; ratio drug:alanosine 1:10): 0.9
- EC75 Effect (A549 [4]; ratio drug:alanosine 1:10): slight
- EC90 Effect (A549 [4]; ratio drug:alanosine 1:10): Slight
- IC75 (NCI-H2452 [5]; NCI-H2452, incubation with 200 nM L-alanosine): 0.015 µM
- IC75 (NCI-H2452 [5]; NCI-H2452, pemetrexed alone): 0.2 µM
- IC50 [6]: 0.5 µM
- IC50 (NCI-H226 [7]): 1 µM
- ATP levels restored by addition of an MTAP substrate, of level in control cells (HS-766T [8]; HS-766T (MTAP-positive) treated with pemetrexed): more than 85%
- IC50 (HS-766T [8]; Hs766T, 72 h, HS-766T, Pancreatic, MTAP Positive, 3 day treatment): 0.8 µM
- ATP levels restored by addition of an MTAP substrate, of level in control cells (A-427 [9]; A-427 (MTAP-positive) treated with pemetrexed): more than 85%
- IC50 (A-427 [9]; Homo sapiens, 72 h, A-427, NSCLC, MTAP Positive, 3 day treatment): 5 µM
- IC50 (NCI-H226 [10]; Homo sapiens, 72 h, NCI-H226, Mesothelioma, MTAP Positive, 3 day treatment): 1 µM
- ATP levels restored by addition of an MTAP substrate, of level in control cells (NCI-H226 [10]; NCI-H226 (MTAP-positive) treated with pemetrexed): more than 85%
- IC50 (BxPC3 [11]): 0.05 µM
- IC50 (NCI-H2452 [12]): 0.05 µM
- IC50 (NCI-H2452 [13]; 72 h, NCI-H2452, Mesothelioma, MTAP Negative, 3 day treatment, read-out: ATP IC50): 0.1 µM
- IC50 (NCI-H2452 [13]; NCI-H2452, 72 hours incubation, read-out: concentration causing 50% reduction of intracellular ATP): 0.08 µM
- IC50 (BxPC3 [14]): 5 µM
- IC50 (A-594): > 20 µM

Compound: Nc1ccn([C@@H]2O[C@H](CO)[C@@H](O)C2(F)F)c(=O)n1 [gemcitabine]
- EC75 CI value (NCI-H2452 [3]; ratio drug:alanosine 1:100): 0.6
- EC75 Effect (NCI-H2452 [3]; ratio drug:alanosine 1:100): synergism
- EC90 Effect (NCI-H2452 [3]; ratio drug:alanosine 1:100): synergism

Compound: CC(=O)O[C@H]1C(=O)[C@@]2(C)[C@H]([C@H](OC(=O)c3ccccc3)[C@]3(O)C[C@H](OC(=O)[C@H](O)[C@@H](NC(=O)c4ccccc4)c4ccccc4)C(C)=C1C3(C)C)[C@]1(OC(C)=O)CO[C@@H]1C[C@@H]2O [paclitaxel]
- tumor growth inhibition (A549 NSCLC xenografts; 60 days monitoring, doses as administered): inhibited tumor growth
- time for the tumors to increase 10-fold in size (A549 NSCLC xenografts; L-alanosine 40 then 20 mg/kg/day, Taxol 16 mg/kg/day i.p., two cycles (day 0, day 41), control 32.2): 43.2 days
- percent mean change in tumor volume (A549 NSCLC xenografts; day 46): 1449±236%

Compound: CC(=O)O[C@@]12CO[C@@H]1C[C@H](O)[C@@]1(C)C(=O)[C@H](O)C3=C(C)[C@@H](OC(=O)[C@H](O)[C@@H](NC(=O)OC(C)(C)C)c4ccccc4)C[C@@](O)([C@@H](OC(=O)c4ccccc4)[C@H]21)C3(C)C [docetaxel]
- EC75 CI value (NCI-H292 [15]): 1.1
- EC75 Effect (NCI-H292 [15]): additive
- EC90 Effect (NCI-H292 [15]): additive
- EC75 CI value (NCI-H2322M): 0.9
- EC90 Effect (NCI-H2322M): synergism
- EC75 CI value (NCI-H2452 [3]; ratio drug:alanosine 1:1000): 0.8
- EC75 Effect (NCI-H2452 [3]; ratio drug:alanosine 1:1000): moderate
- EC90 Effect (NCI-H2452 [3]; ratio drug:alanosine 1:1000): synergism
- EC75 CI value (A549 [4]; ratio drug:alanosine 1:100): 0.8
- EC75 Effect (A549 [4]; ratio drug:alanosine 1:100): moderate
- EC90 Effect (A549 [4]; ratio drug:alanosine 1:100): moderate
- EC75 CI value (PanC1; ratio drug:alanosine 1:1000): 0.6
- EC75 Effect (PanC1; ratio drug:alanosine 1:1000): synergism
- EC90 Effect (PanC1; ratio drug:alanosine 1:1000): synergism
- IC50 (NCI-H2452 [16]): 3 ± 2 µM
- IC50 (PANC-1): 30 ± 6 µM
- IC50 (NCI-H322M): 6 ± 2 µM
- IC50 (BX-PC3 [17]): 1.2 ± 0.8 µM
- IC50 (A549 [18]): 5 ± 4 µM
- mean tumor volume (H-Meso-1): 655 mm^3
- IC50 (NCI-H292 [19]): 0.2 ± 0.05 µM

Compound: COc1cc2ncnc(Nc3ccc(F)c(Cl)c3)c2cc1OCCCN1CCOCC1 [Iressa ®, gefitinib]
- EC75 CI value (BX-PC3 [20]; [21]): 0.29
- EC75 Effect (BX-PC3 [20]; [21]): strong
- EC90 Effect (BX-PC3 [20]; [21]): strong

Compound: O=c1[nH]cc(F)c(=O)[nH]1 [5-FU, 5-fluorouracil]
- EC75 CI value (NCI-H2452 [3]; ratio drug:alanosine 1:1): 0.5
- EC75 Effect (NCI-H2452 [3]; ratio drug:alanosine 1:1): synergism
- EC90 Effect (NCI-H2452 [3]; ratio drug:alanosine 1:1): synergism
- EC75 CI value (PanC1; ratio drug:alanosine 1:1): 0.6
- EC75 Effect (PanC1; ratio drug:alanosine 1:1): synergism
- EC90 Effect (PanC1; ratio drug:alanosine 1:1): synergism
- EC75 CI value (BX-PC3 [20]; [22]): 0.8
- EC75 Effect (BX-PC3 [20]; [22]): moderate
- EC90 Effect (BX-PC3 [20]; [22]): moderate
- IC50 (NCI-H2452 [16]): 5 ± 2 µM
- IC50 (PANC-1): 14 ± 4 µM
- IC50 (NCI-H322M): 6 ± 5 µM
- IC50 (BX-PC3 [17]): 3 ± 2 µM
- IC50 (A549 [18]): 1 ± 0.6 µM
- IC50 (NCI-H292 [19]): 3 ± 2 µM

Compound: CCC1=C[C@@H]2CN(C1)Cc1c([nH]c3ccccc13)[C@@](C(=O)OC)(c1cc3c(cc1OC)N(C)[C@H]1[C@@](O)(C(=O)OC)[C@H](OC(C)=O)[C@]4(CC)C=CCN5CC[C@]31[C@@H]54)C2 [vinorelbine]
- EC75 CI value (BX-PC3 [20]; [23]): 0.6
- EC75 Effect (BX-PC3 [20]; [23]): synergism
- EC90 Effect (BX-PC3 [20]; [23]): synergism
